Measurements as given in patent US7229621B2, “Method to enhance the immunogenicity of an antigen” (Torrey Pines Institute for Molecular Studies, priority 1998, dated 2007).

Key:
[1] = tested on: Langerhans cells (immature dendritic cells); assay: FITC screening assay: Langerhans/dendritic cell migration to draining inguinal lymph node after topical FITC in acetone plus migration inducer; format: in vivo, C57BL/6 mice; conditions: for Amt. Antigen/DC (mean fluorescence intensity of the dendritic cells) / Total DC (FITC+ plus FITC- dendritic cells per lymph node) / Antigen^+ DC (FITC+ MHC class II^Hi cells per lymph node): FITC 5 mg/ml in 50:50 acetone and test agent; for Amt. Antigen/DC (mean fluorescence intensity of the dendritic cells) / Total DC (FITC+ plus FITC- dendritic cells per lymph node): 48 hrs later; for Antigen^+ DC (FITC+ MHC class II^Hi cells per lymph node): inguinal lymph nodes 48 hrs later; for effect on FITC+ and total dendritic cell migration into the lymph node: topical FITC in acetone plus agent on shaved abdominal skin, 2 days after treatment (FIG. 1)
Excerpt: Fluorescein isothiocyanate (FITC) has been used extensively by the inventor and others, to characterize Langerhans cell migration. FITC is a small (389 Da) non-peptide, largely lipophilic molecule, capable of crossing the stratum corneum. The antigenicity of FITC is due to the reactivity of its isothiocyanate group (—N═C═S) with free amino groups, permitting it to be covalently bound to proteins and/or peptides. C57BL/6 mice received the following treatments: 1) none; 2) shaving of the abdominal skin only; or shaving of the abdominal skin followed by either 3) topical administration of FITC in acetone; 4) topical administration of FITC in acetone and olive oil; 5) topical administration of FITC in acetone and DMSO diluted in phosphate buffered saline (PBS); or 6) topical administration of FITC in acetone and dibutyl phthalate. The draining inguinal lymph nodes were then examined for immigrant dendritic cells by immunofluorescent flow cytometry each day thereafter. Migratory Langerhans cells were identified by the presence of FITC and co-expression of high MHC class II molecules or by co-expression of the DEC 205 ligand for the monoclonal antibody, NLDC-145. Dendritic cell residents of the lymph nodes could be differentiated by their high expression of MHC class II molecules but lack of FITC, or by their lack of FITC but co-expression of the ligand for the dendritic cell-specific monoclonal antibody, 33D1. The uptake of FITC and the Langerhans cell response to migratory signals were observable in the draining lymph node as early as six hours after topical administration. However, 48–72 hours was required for maximal immigration of FITC-bearing Langerhans cells into the lymph node. FIG. 1 illustrates the effect of various treatment regimens on the total and FITC+ dendritic cells 2 days after treatment. […] Thus, dibutyl phthalate was a very potent migration inducer.
Compounds which are useful as inducers of immature dendritic cell migration may be screened using the standard FITC methods described for the data presented in FIGS. 1—3. C57BL6 mice are shaved on their abdomens and painted with 100–200 μl of the test solution, containing 5 mg/ml FITC in a 50/50 (v/v) mixture of acetone and the migration inducer (e.g. dibutyl phthalate). After 2 days, the draining inguinal lymph nodes are removed and the total number of dendritic cells (both FITC+ and FITC−) is determined by flow cytometry and MHC class II immunofluorescence or other markers specific for dendritic cells.
The antigen employed was FITC and the procedure was identical to that used for the experiments depicted in FIG. 1. Namely, FITC at 5 mg/ml was dissolved in a 50:50 solution of acetone and the test agents for migration induction. The test agents used in this experiment were: dibutylfumarate (Agent #1); diisooctylmaleate (Agent #2); and dibutyl-D-tartarate (Agent #3). The inguinal lymph nodes were examined 48 hrs later for the presence of FITC+ and FITC-dendritic cells as detailed previously.
The antigen used was FITC, which was applied topically to the shaved abdominal skin of C57BL/6 mice at 5 mg/ml in a 50:50 solution of dibutyl phthalate and acetone. Each of the applications was identical, with half of the mice in each group receiving the first application only (none) and half receiving the first application followed by a second application at the specified interval (14 days or 21 days) after the first application. The inguinal lymph node cells were examined by flow cytometry for FITC+ dendritic cells, as detailed previously, 48 hrs after each treatment.

[2] = tested on: dendritic cells in draining lymph node; assay: Antigen-bearing dendritic cells in lymph node after aqueous antigen applied to skin with DBP and acetone; format: in vivo; conditions: aqueous solution applied to the skin with topical DBP and acetone (data not shown)
Excerpt: Similarly, when an aqueous solution of a […] peptide or OVA protein antigen was applied to the skin along with topical application of the migration inducer, DBP and acetone, no detectable antigen-bearing (i.e., K^b:[…] positive) dendritic cells appeared in the draining lymph node (data not shown).

[3] = tested on: E.G7-OVA tumor cells; assay: E.G7-OVA tumor growth after immunization with tumor antigen and migration inducer; format: in vivo, C57BL/6 mice; conditions: 50 μl of 1.25 mM OVA in HBSS injected, DBP in acetone topically an hour later; tumor inoculation one month later (FIG. 12)
Excerpt: The tumor cell, E.G7-OVA, is the C57BL/6 EL4 thymoma transfected with the complete gene for chicken ovalbumin (OVA). The transfected cell line expresses OVA protein, which is also processed naturally by E.G7-OVA cells into an eight amino acid peptide, OVA257-264, with the sequence […]. […] Based on the positive results using FITC, the inventors followed a similar protocol in an attempt to induce immunity to the E.G7-OVA tumor by topical administration of the well-characterized, synthetic […] tumor-associated peptide.
C57BL/6 mice were treated as follows: 1) shaving alone; 2) topical administration of acetone and dibutyl phthalate; 3) topical administration of […] (240 μg/ml) in DMSO diluted in PBS, followed in 5 hours by acetone and dibutyl phthalate; and 4) topical administration of […] (240 μg/ml) in acetone and dibutyl phthalate. All mice were subsequently injected subcutaneously with 5×10^5 E.G7-OVA cells (5-times the minimal tumorogenic dose). Tumor-specific immunity was monitored by measuring the size of the developing tumor.
The mucous membranes lack the tough barrier posed by the stratum corneum of the skin. […] The EL4 parent tumor cell line, lacking chicken ovalbumin, was used as a negative control; no immunity against the EL4 tumor cells was seen. Thus, the inventors' hypothesis regarding penetration of the stratum corneum was confirmed; the […] peptide was not effectively reaching the immature dendritic cells, known as Langerhans cells, underlying the stratum corneum.
To enhance the effectiveness of cutaneous topical administration of peptide, […] was dissolved in DMSO and applied to the skin without further dilution. Dibutyl phthalate in a 50:50 mixture with acetone was applied to the same site 5 hr later. All mice were subsequently injected subcutaneously with 5×10^5 E.G7-OVA cells. The results shown in FIG. 6 indicate that the peptide in concentrated DMSO was apparently able to traverse the stratum corneum, effectively gaining access to the epidermal Langerhans cells. […] Thus, the tumor-specific peptide, […], in concentrated DMSO, penetrated the stratum corneum in sufficient concentration to be incorporated into the MHC class I molecule K^b on epidermal Langerhans cells, and in the presence of the migration inducer, dibutyl phthalate, was effectively presented to CD8+ CTLs in the draining lymph nodes.
To confirm the immunogenicity of the disclosed treatment, groups of 10 C57BL/6 mice were injected with 50 μl of 1.25 mM OVA protein in HBSS, with HBSS alone, or with nothing. This was followed an hour later by topical application of DBP in acetone or with nothing. One month later, the mice were inoculated subcutaneously with 5×10^5 EL4 tumor cells or with 5×10^5 E.G7-OVA tumor cells and subsequent tumor growth was measured.

[4] = tested on: dendritic cells in draining lymph node; assay: Antigen-bearing dendritic cells in lymph nodes after injection of soluble protein or peptide with or without topical migration inducer; format: in vivo, mice
Experimental: The injections were followed 2 hours later by topical application of dibutyl phthalate and acetone to the abdominal skin. The antigen-bearing dendritic cells that had migrated to the draining lymph node two days later were analyzed as described above and are shown in the upper right quadrant of each dot plot.
This was followed 2 hrs later by: A) no further treatment, or B) topical application of dibutyl phthalate and acetone to the abdominal skin. The antigen-bearing dendritic cells that had migrated to the draining lymph node two days later are shown in the upper right quadrant of each dot plot.
As stated previously, whether mature antigen-bearing dendritic cells will be encountered by and activate naive T cells in the lymph node is likely to depend not only on the number of antigen-bearing dendritic cells that enter the node, but also on the density of MHC:peptide complexes expressed on their membranes.

[5] = 1st treatment day 1, 2nd none, assay day 16
[6] = 1st treatment day 1, 2nd none, assay day 23
[7] = 1st treatment day 1, 2nd treatment day 14, assay day 16
[8] = 1st treatment day 1, 2nd treatment day 21, assay day 23
[9] = FITC 5 mg/ml in 50:50 dibutyl phthalate and acetone, 1st treatment day 1, 2nd none, assay day 2
[10] = 20 μl of 0.5 mM in HBSS injected, dibutyl phthalate and acetone 2 hours later, two days later

## CCCCOC(=O)[C@@H](O)[C@H](O)C(=O)OCCCC [DBT, dibutyl-D-tartarate]
[1]
  Amt. Antigen/DC (mean fluorescence intensity of the dendritic cells): 364 arbitrary units
  Total DC (FITC+ plus FITC- dendritic cells per lymph node): 29,050 cells per lymph node
  Antigen^+ DC (FITC+ MHC class II^Hi cells per lymph node): 14,175 cells per lymph node

## C[S+](C)[O-] [DMSO, dimethylsulfoxide]
[1]
  effect on FITC+ and total dendritic cell migration into the lymph node: no enhancement

## CCCCOC(=O)/C=C/C(=O)OCCCC [Test Agent #1, dibutylfumarate]
[1]
  Amt. Antigen/DC (mean fluorescence intensity of the dendritic cells): 994 arbitrary units
  Total DC (FITC+ plus FITC- dendritic cells per lymph node): 10,088 cells per lymph node
  Antigen^+ DC (FITC+ MHC class II^Hi cells per lymph node): 4,242 cells per lymph node

## CC(C)CCCCCOC(=O)/C=C\C(=O)OCCCCCC(C)C [Test Agent #2, diisooctylmaleate]
[1]
  Amt. Antigen/DC (mean fluorescence intensity of the dendritic cells): 1032 arbitrary units
  Total DC (FITC+ plus FITC- dendritic cells per lymph node): 7,927 cells per lymph node
  Antigen^+ DC (FITC+ MHC class II^Hi cells per lymph node): 5,340 cells per lymph node

## CCCCOC(=O)c1ccccc1C(=O)OCCCC [dibutyl phthalate]
[1]; [5]
  Antigen-bearing Dendritic Cells/Node: 1,776
  Cells per Lymph Node: 4.52 × 10^6
[1]; [6]
  Antigen-bearing Dendritic Cells/Node: 0
  Cells per Lymph Node: 3.87 × 10^6
[1]; [7]
  Antigen-bearing Dendritic Cells/Node: 99,840
  Cells per Lymph Node: 1.28 × 10^7
[1]; [8]
  Antigen-bearing Dendritic Cells/Node: 49,203
  Cells per Lymph Node: 6.93 × 10^6
[1]; [9]
  Antigen-bearing Dendritic Cells/Node: 64,220
  Cells per Lymph Node: 6.76 × 10^6
[1]; by 12 hours after FITC in acetone and dibutyl phthalate (FIG. 2)
  FITC+ Langerhans cells present in the lymph node: High numbers
[1]; five days after topical FITC in acetone and dibutyl phthalate (FIG. 3)
  increase of lymph node cell population over baseline levels: approximately 7.2 fold
[1]
  effect on FITC+ and total dendritic cell migration into the lymph node: striking effect

B1: OVA: Chicken ovalbumin, a 40 kDa protein used as prototypic experimental antigen (protein, UniProt P01012 2-386, looked up)
Ovalbumin: GSIGAASMEFCFDVFKELKVHHANENIFYCPIAIMSALAMVYLGAKDSTRTQINKVVRFDKLPGFGDSIEAQCGTSVNVHSSLRDILNQITKPNDVYSFSLASRLYAEERYPILPEYLQCVKELYRGGLEPINFQTAADQARELINSWVESQTNGIIRNVLQPSSVDSQTAMVLVNAIVFKGLWEKAFKDEDTQAMPFRVTEQESKPVQMMYQIGLFRVASMASEKMKILELPFASGTMSMLVLLPDEVSGLEQLESIINFEKLTEWTSSNVMEERKIKVYLPRMKMEEKYNLTSVLMAMGITDVFSSSANLSGISSAESLKISQAVHAAHAEINEAGREVVGSAEAGVDAASVSEEFRADHPFLFCIKHIATNAVLFFGRCVSP
[2]
  antigen-bearing (K^b:SIINFEKL positive) dendritic cells in the draining lymph node: no detectable
[3]
  tumor protection against E.G7-OVA: tumor protection
[4]; 20 μl of 0.5 mM in HBSS injected at two sites in abdominal skin, dibutyl phthalate and acetone topically 2 hours later, two days later
  Total Cells per Lymph Node: 8.8 × 10^6
[4]; [10]
  Dendritic Cells per Lymph Node: 137,456
  K^b:SIINFEKL^+ DC per LymphNode: 61,424
[4]; K^b:SIINFEKL+ DC versus HBSS injection
  Enhancement: 31×
[4]; injection followed by topical induction of migration, two days later
  increase in the number of antigen-bearing dendritic cells in the draining lymph nodes: 31 fold
